Data on 36 compounds can be found in PubChem BioAssay (NCI).

Where “and” joins values, the source holds several entries; their conditions need not be identical. Equal entries are not always repeated.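 Tested at 5 concentrations; 48 h exposure; 96-well plates; endpoints linearly interpolated, else capped at highest concentration. Here, GI50 denotes the concentration required for 50% inhibition of growth. Definition used: TGI = concentration required for complete inhibition of growth.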

This test deals with MDA-MB-468 breast. As to the kind of experiment: growth of human tumour cells (NCI), 48 h.

`COc1ccc2c(c1)c(-c1nc(-c3cn(C)c4ncccc34)cs1)cn2CCCCN1CCOCC1`: the GI50 is 1.34 µM and the TGI worked out at 3.08 µM.

For `CN1CCN(CCCN2c3ccccc3Sc3ccc(C(F)(F)F)cc32)CC1`, the GI50 was 1.52 µM and the TGI is 3.19 µM.

Regarding `CNC(=O)c1c(NC(=O)c2ccc(C(C)C)cc2)sc2c1CCC(=O)C2`, the GI50 was 0.45 µM and the TGI turned out to be 2.33 µM.

As to `O=C1c2ccccc2CCC1(Br)Br`, the GI50 was 1.2 µM and the TGI was 2.95 µM.

`O=C(Nc1ccc(O)c(NS(=O)(=O)c2ccc(F)cc2)c1)c1ccc(-c2ccccc2)cc1`: the GI50 was 2.48 µM and the TGI was determined as 10.8 µM.

Consider `Cc1cccc2c1NC(=O)C2(c1ccc(O)cc1)c1ccc(O)cc1`, for which the GI50 is below 0.0181 µM and the TGI was found to be 4.24 µM.

Regarding `O=C(Nc1cccc(-n2cc(-c3ccncc3)c(-c3ccc(O)c(Cl)c3)n2)c1)c1ccc(N2CCOCC2)c(C(F)(F)F)c1`, the GI50 was 35.3 µM and the TGI is above 50 µM.

For `CN1CCN(CCCOc2ccc3nc(Nc4ccc(C(F)(F)F)c(Cl)c4)ccc3c2)CC1`, the GI50 was 1.54 µM and the TGI stood at 3.16 µM.

For `OCCN1CCN(c2nc(Nc3ccc(-c4nc5ccccc5[nH]4)cc3)c3cn[nH]c3n2)CC1`, the GI50 is 1.69 µM and the TGI came out at 3.23 µM.

For `CC(=O)OC[C@@]12Oc3c(cccc3-c3ccc(O)c4c3O[C@]3(COC(C)=O)C(=C4O)C(=O)C[C@H](C)[C@@H]3OC(C)=O)C(O)=C1C(=O)C[C@H](C)[C@@H]2OC(C)=O`, the GI50 is 15.1 µM and the TGI is 48.7 µM.

Turning to `COc1ccc(C(=O)c2cc(OC)c(OC)c(OC)c2)cc1/C=C/C(=O)c1ccc2c(c1)OCO2`, the GI50 was 1.44 µM and the TGI stood at 4.06 µM.

For `CC(=O)Nc1ccc(S(=O)(=O)c2ccc(NC(C)=O)cc2)cc1`, the GI50 was 64.8 µM and the TGI was above 100 µM.

For the compound `Cc1nc2sc(C(=O)Nc3cccc(Cl)c3C)c(N)c2cc1C(=O)c1ccccc1`, the GI50 is 0.126 µM and the TGI is 0.889 µM.

On to `O=C(Nc1ccc(Cl)cc1F)c1cc(Cl)ccc1O`, for which the GI50 was 0.429 µM and the TGI worked out at 3.96 µM.

Regarding `Cc1[nH]c2ccccc2c1C1=CC(=O)C=CC1=O`, the GI50 was 3.1 µM and the TGI worked out at 11.2 µM.

`Cc1csc(-c2ccc3c(c2)COC3(CCCN(C)C)c2ccc(F)cc2)c1` (configuration not stated): the GI50 was 1.7 µM and the TGI stood at 3.38 µM.

`N=C(N)c1ccc(-c2ccc(-c3ccc(Cl)c(Cl)c3)o2)nc1`: the GI50 was 1.82 µM and the TGI came out at 3.56 µM.

For the compound `O=c1cc(-c2ccccc2)nc2cc(-c3ccco3)[nH]n12`, the GI50 was 2.89 µM and the TGI amounted to 59.5 µM.

With `COc1cc(C2C(C(=O)OCc3ccccc3)=C(C)NC(C)=C2C(=O)OCc2ccccc2)cc(OC)c1OC`, the GI50 is 2.43 µM and the TGI was above 100 µM.

With `CCCCC/C=C\C/C=C/CCCCCCCCNC(=O)Nc1ccc([N+](=O)[O-])cc1`, the GI50 is 7.63 µM and the TGI came to 73 µM.

As for `O=C1CCCC(=O)C1C(=O)c1ccc(C(F)(F)F)cc1[N+](=O)[O-]`, the GI50 is above 100 µM and the TGI was above 100 µM.

In the case of `CCNC(=O)c1ccc2c(c1)nc(-c1ccc(Cl)cc1)n2-c1cc(C(C)(C)C)[nH]n1`, the GI50 is 2.26 µM and the TGI came to 8.3 µM.

Turning to `CCOC(=O)c1c(NC(=O)c2ccccc2C(F)(F)F)sc2c1CCC(=O)C2`, the GI50 was 2.35 µM and the TGI is 7.52 µM.

For `N#C/C(=C\c1ccc([N+](=O)[O-])s1)c1nc2cc(Br)ccc2s1`, the GI50 is 1.89 µM and the TGI amounted to 5.42 µM.

In the case of `COc1cc(/C=N/Nc2ncnc3c2cnn3Cc2ccccc2)ccc1O`, the GI50 was 7.88 µM and the TGI was above 25 µM.

Take `O=C1C(Cl)=C(Nc2ccccn2)C(=O)c2ccccc21`: the GI50 was 1.99 µM and the TGI was 4.39 µM.

Consider `COc1cccc2cc(-c3nc(C4CCC(C(=O)O)CC4)n4ncnc(N)c34)[nH]c12` (configuration not stated), for which the GI50 was 0.185 µM and 0.257 µM; the TGI was 1.09 µM and 3 µM.

Turning to `CCCN(CCC)c1ccc(/C=N/NC(=O)c2cccnc2)cc1`, the GI50 was 16.4 µM and the TGI is 84.2 µM.

For `CC(C)NCCCCCNc1cc(O)cc2cccnc12`, the GI50 is 2.29 µM and the TGI was found to be 6.2 µM.

`Nc1ncnc2c1c(C(=O)NO)cn2C1OC(CO)C(O)C1O` (configuration not stated): the GI50 is 0.115 µM and the TGI amounted to 0.908 µM.

Turning to `CC#CC(=O)N[C@H]1CCCN(c2c(F)cc(C(N)=O)c3[nH]c(C)c(C)c23)C1`, the GI50 was 11.8 µM and the TGI was determined as 27 µM.

For the compound `CCc1cccc(CC)c1NC(=O)c1ccn2c1CCc1cnc(Nc3ccc(N4CCN(C)CC4)cc3OC)nc1-2`, the GI50 is 2.1 µM and the TGI turned out to be 5.91 µM.

As to `CS(=O)(=O)c1ccc(-c2[nH]c3ccc(F)cc3c2/C=N/NC(N)=S)cc1`, the GI50 was 2.67 µM and the TGI was 13.4 µM.

On to `CC(=O)OC1CC(C)c2c(Cl)ncnc21` (configuration not stated), for which the GI50 is above 100 µM and the TGI was above 100 µM.

Consider `c1ccc(C2=NN[C@H](c3cn(-c4ccccc4)nc3-c3ccccc3)C2)cc1`, for which the GI50 was 4.18 µM and the TGI is above 100 µM.

In the case of `COc1cc(C(=O)Nc2cc(O)c(C/C=C(\C)CCC=C(C)C)c(O)c2)cc2c1O[C@]1(C)CC[C@@H](O)C(C)(C)[C@H]1C2`, the GI50 was 0.816 µM and 0.212 µM; the TGI amounted to 4.95 µM.
